Data reported in US11401278B2, “Macrocyclic indole derivatives” (The Broad Institute, Inc., priority 2017, dated 2022).
Several values for one entry are separate records, joined by “and”; a condition that tells them apart may be missing. Equal values may be shown once. Where a name gives a salt, the structure may show the parent alone. Read-outs that look alike come from different tables or passages of the source.

Columns and labels:
SUDHL5 [1] = assay: Induction of caspase-3/7 activity (Assay 4), SUDHL5; type: cell-based; details: caspase-3/7 induction, median
Summary of the method: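 DLBCL cells were exposed to compounds for 3 hours at 37 °C, then caspase-3/7 activation was read with Caspase-Glo 3/7 reagent. After subtracting medium-only background, EC50s were derived with fixed C0=1 and the reference compound's maximal induction as plateau.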

MCL-1 = MCL-1 (Homo sapiens (Human), UniProt Q07820, K194A/K197A/R201A); assay: Protein-protein interaction assay MCL-1/Noxa BH3 peptide (MCL-1 assay, TR-FRET); type: binding; details: MBP-MCL-1 / Noxa BH3 peptide, median
Summary of the method: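 TR-FRET competition assay read at 665/620 nm, with a Noxa BH3 tracer peptide (1 nM) plus Eu-cryptate anti-MBP and XL665-streptavidin. Compounds (0.1 nM-20 μM, duplicates) were pre-equilibrated 10 min at 22° C with 1 nM MBP-MCL-1 (173-329) in Tris pH 7, NaCl, KF, DTT buffer, then incubated 1 h at 22° C and overnight at 4° C. IC50 came from 4-parameter regression.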

SUDHL10 = assay: Induction of cytotoxicity (Assay 6), SUDHL10; details: read-out: Cytotox SUDHL10 [M] (median) IC50, CellTiter-Glo, 5 hours, SUDHL10
SUDHL5 [2] = assay: Antiproliferation assay (Assay 7), SUDHL5; type: cell-based; details: CellTiter-Glo, median, read-out: Antiproli SUDHL5 [M] (median) IC50
Summary of the method: (§1)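 Plate cells in treatment and day 0 reference plates; read day 0 plate with CellTiter-Glo after 10 min; incubate treated plates 72 h at 37° C; read them identically.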

SUDHL5 [3] = assay: Induction of cytotoxicity (Assay 6), SUDHL5; details: read-out: Cytotox SUDHL5 [M] (median) IC50, CellTiter-Glo, 5 hours, SUDHL5
MV-4-11 = assay: Antiproliferation assay (Assay 7), MV-4-11; type: cell-based; details: CellTiter-Glo, several values per example
Protocol: Assessment of the Anti-Proliferative Effect of Compounds in Different Cell Lines
The impact of compounds on the proliferation of different cell lines was assessed using the CellTiter-Glo® Luminescent Cell Viability reagent from Promega (G7573).
In parallel, cells were plated in a reference (day 0) plate for time zero determination.
Rim wells were excluded. The cells were incubated for 72 hours in a humidified incubator at 37° C. The day 0 plate was measured by adding 30 μL/well of CTG solution (CellTiter-Glo® Luminescent Cell Viability reagent, Promega G7573) to time zero wells in the reference plate followed by a 10 minutes incubation and luminescence reading at 0.1 ms. using the PHERAstar FS microplate reader (BMG Labtech).
After 72 hours incubation, the treated plates were measured in the same way as the day 0 plate mentioned above.

AMO-1 = assay: Antiproliferation assay (Assay 7), AMO-1; type: cell-based; details: CellTiter-Glo, 72 hours, several values per example
Summary of the method: as §1

[4] = Homo sapiens, MV4-11, 72 h, read-out: Antiproli MV-4-11 [M] IC50
[5] = read-out: Antiproli AMO-1 [M] IC50

Sequence of MCL-1 (Q07820 whole entry K194A/K197A/R201A, looked up): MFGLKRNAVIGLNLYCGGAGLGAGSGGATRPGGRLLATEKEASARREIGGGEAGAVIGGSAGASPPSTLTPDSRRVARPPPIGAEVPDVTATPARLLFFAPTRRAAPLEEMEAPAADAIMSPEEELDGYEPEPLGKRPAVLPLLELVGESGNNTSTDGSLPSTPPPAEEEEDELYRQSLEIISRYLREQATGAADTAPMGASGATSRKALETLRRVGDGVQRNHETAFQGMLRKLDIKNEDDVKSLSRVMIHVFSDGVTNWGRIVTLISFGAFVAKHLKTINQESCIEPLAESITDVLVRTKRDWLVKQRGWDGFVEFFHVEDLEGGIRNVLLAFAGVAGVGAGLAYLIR

SMILES	EC50 (SUDHL5 [1]; Homo sapiens, SU-DHL-5, 3 h) [nM]	IC50 (MCL-1) [nM]	IC50 (SUDHL10; Homo sapiens, SU-DHL10, 5 h) [M]	IC50 (SUDHL5 [2]; Homo sapiens, SU-DHL-5, 72 h) [M]	IC50 (SUDHL5 [3]; Homo sapiens, SU-DHL-5, 5 h) [M]	IC50 (MV-4-11; 72 hours, listed as 01, read-out: Antiproli MV-4-11 [M] IC50)	IC50 (MV-4-11; [4]) [M]	EC50 (SUDHL5 [1]; 3 hours) [nM]	IC50 (SUDHL10) [M]	IC50 (AMO-1; listed as 05, read-out: Antiproli AMO-1 [M] IC50) [M]	IC50 (SUDHL5 [2]; 72 hours) [M]	IC50 (SUDHL5 [3]) [M]	IC50 (AMO-1; [5])	IC50 (MV-4-11; 72 hours, listed as 03, read-out: Antiproli MV-4-11 [M] IC50) [M]	IC50 (MV-4-11; 72 hours, listed as 06, read-out: Antiproli MV-4-11 [M] IC50) [M]
Cc1c2c(nn1C)CN(CCN1CCOCC1)S(=O)(=O)CCCn1c(C(=O)O)c(CCCOc3cccc4ccccc34)c3cccc-2c31 (racemic) [Example 1, (rac)-2,3-Dimethyl-14-[2-(morpholin-4-yl)ethyl]-7-{3-[(naphthalen-1-yl)oxy]propyl}-13,13-dioxo-10,11,12,13,14,15-hexahydro-2H-13λ^6-pyrazolo[3′,4′:4,5][1,2,8]thiadiazacycloundecino-[6,7,8-hi]indole-8-carboxylic acid]	4800	6.2	1.3e-05	7.2e-06	6.7e-06	1.8e-05 M and 2.38e-05 M	1.73e-05								
CCc1c2c(nn1C)CN(C)S(=O)(=O)CCCn1c(C(=O)O)c(CCCOc3cccc4c3CCCC4)c3ccc(F)c-2c31 (racemic) [Example 34, (rac)-12-Ethyl-13-fluoro-8,11-dimethyl-1-(3-((5,6,7,8-tetrahydronaphthalen-1-yl)oxy)propyl)-5,6,9,11-tetrahydro-4H,8H-pyrazolo[3′,4′:4,5][1]thia[2,8]diazacycloundecino[6,7,8-hi]indole-2-carboxylic acid 7,7-dioxide]	1300	3.2	2.4e-06	8.2e-07	1.4e-06		4.83e-06								
Cc1c2c(nn1C)CN(C)S(=O)(=O)CCCn1c(C(=O)O)c(CCCOc3cccc4ccccc34)c3ccc(Cl)c-2c31 (single isomer, unassigned; enantiomer 1) [Example 5, 4-Chloro-2,3,14-trimethyl-7-{3-[(naphthalen-1-yl)oxy]propyl}-13,13-dioxo-10,11,12,13,14,15-hexahydro-2H-13λ^6-pyrazolo[3′,4′:4,5][1,2,8]thiadiazacycloundecino[6,7,8-hi]indole-8-carboxylic acid-N-ethylethanamine salt (Enantiomer 1)]		0.52						130	7.1e-07	1.5e-06	5.1e-07	4.9e-07			
Cc1c2c(nn1C)CNS(=O)(=O)CCCn1c(C(=O)O)c(CCCOc3cccc4cc(F)ccc34)c3ccc(Cl)c-2c31 (single isomer, unassigned; enantiomer 1) [Example 51, 4-chloro-7-{3-[(6-fluoronaphthalen-1-yl)oxy]propyl}-2,3-dimethyl-13,13-dioxo-10,11,12,13,14,15-hexahydro-2H-13lambda^6-pyrazolo[3′,4′:4,5][1,2,8]thiadiazacycloundecino[6,7,8-hi]indole-8-carboxylic acid (Enantiomer 1)]		0.96						340	9.8e-07		4.1e-07	5e-07			
CCc1c2c(nn1C)C(CCC1CCOCC1)N(C)S(=O)(=O)CCCn1c(C(=O)O)c(CCCOc3cccc4cc(F)ccc34)c3ccc(Cl)c-2c31 (single isomer, unassigned; enantiomer 1) [Example 61, (+)-4-chloro-3-ethyl-7-{3-[(6-fluoronaphthalen-1-yl)oxy]propyl}-2,14-dimethyl-15-[2-(oxan-4-yl)ethyl]-13,13-dioxo-10,11,12,13,14,15-hexahydro-2H-13lambda^6-pyrazolo[3′,4′:4,5][1,2,8]thiadiazacycloundecino[6,7,8-hi]indole-8-carboxylic acid (Enantiomer 1)]		0.94						22	4.9e-08		3.9e-08	2.8e-08	2.5e-08 M and 2.8e-08 M		
Cc1c2c(nn1C)CN(CCN1CCOCC1)S(=O)(=O)CCCn1c(C(=O)O)c(CCCOc3cccc4ccccc34)c3cccc-2c31 (single isomer, unassigned; enantiomer 2) [Example 3, 2,3-Dimethyl-14-[2-(morpholin-4-yl)ethyl]-7-{3-[(naphthalen-1-yl)oxy]propyl}-13,13-dioxo-10,11,12,13,14,15-hexahydro-2H-13λ^6-pyrazolo[3′,4′:4,5][1,2,8]thiadiazacycloundecino-[6,7,8-hi]indole-8-carboxylic acid-N-ethylethanamine salt (Enantiomer 2)]		270						> 33000	> 3.3e-05		1.5e-05	> 3.3e-05		1.54e-05	
Cc1c2c(nn1C)CN(C)S(=O)(=O)CCCn1c(C(=O)O)c(CCCOc3cccc4ccccc34)c3ccc(Cl)c-2c31 (single isomer, unassigned; enantiomer 2) [Example 6, 4-Chloro-2,3,14-trimethyl-7-{3-[(naphthalen-1-yl)oxy]propyl}-13,13-dioxo-10,11,12,13,14,15-hexahydro-2H-13λ^6-pyrazolo[3′,4′:4,5][1,2,8]thiadiazacycloundecino[6,7,8-hi]indole-8-carboxylic acid-N-ethylethanamine salt (Enantiomer 2)]		11						16000	1.7e-05		1.1e-05	1.2e-05			2.02e-05
Cc1c2c(nn1C)C(CCN1CCOCC1)N(C)S(=O)(=O)CCCn1c(C(=O)O)c(CCCOc3cccc4cc(F)ccc34)c3ccc(Cl)c-2c31 (single isomer, unassigned; enantiomer 2) [Example 67, 4-chloro-7-{3-[(6-fluoronaphthalen-1-yl)oxy]propyl}-2,3,14-trimethyl-15-[2-(morpholin-4-yl)ethyl]-13,13-dioxo-10,11,12,13,14,15-hexahydro-2H-13lambda^6-pyrazolo[3′,4′:4,5][1,2,8]thiadiazacycloundecino[6,7,8-hi]indole-8-carboxylic acid (Enantiomer 2)]		0.4						7.3	1.8e-08		6.7e-09	9.8e-09			
CCc1c2c(nn1C)C(CCC1CCOCC1)N(C)S(=O)(=O)CCCn1c(C(=O)O)c(CCCOc3cccc4cc(F)ccc34)c3ccc(Cl)c-2c31 (single isomer, unassigned; enantiomer 3) [Example 63, (+)-4-chloro-3-ethyl-7-{3-[(6-fluoronaphthalen-1-yl)oxy]propyl}-2,14-dimethyl-15-[2-(oxan-4-yl)ethyl]-13,13-dioxo-10,11,12,13,14,15-hexahydro-2H-13lambda^6-pyrazolo[3′,4′:4,5][1,2,8]thiadiazacycloundecino[6,7,8-hi]indole-8-carboxylic acid (Enantiomer 3)]		1.1						40	8.6e-08		7e-08	4.5e-08	4e-08 M and 4.5e-08 M and 3.3e-08 M		
CCc1c2c(nn1C)CN(CCN1CCOCC1)S(=O)(=O)CCCn1c(C(=O)O)c(CCCOc3cccc4cc(F)ccc34)c3ccc(Cl)c-2c31 [Example 77, (rac)-13-chloro-12-ethyl-1-(3-((6-fluoronaphthalen-1-yl)oxy)propyl)-11-methyl-8-(2-morpholinoethyl)-5,6,9,11-tetrahydro-4H,8H-pyrazolo[3′,4′:4,5][1]thia[2,8]diazacycloundecino[6,7,8-hi]indole-2-carboxylic acid 7,7-dioxide]	4800	6.2	1.3e-05	7.2e-06	6.7e-06										
